As a reminder, the GI50 is the concentration at which growth is held to half of that of the control. For orientation: TGI means the concentration giving total growth inhibition.

Test systems include UACC-62 melanoma; SK-OV-3 ovarian; EKVX NSCLC; RXF 393 renal; A498 renal; SR leukemia; HCC-2998 colon; DMS 114 small cell lung.
Experiment in all cases: DTP human tumour cell line panel, 48 h

Each structure is given as a SMILES string.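 Step 1: Grow cells in 96-well plates. Step 2: Expose to compound for 48 hours at 5 concentrations. Step 3: Interpolate endpoints linearly; if unreached, use highest concentration. At the GI50, growth is halved. The concentration for full growth arrest is given as TGI.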

With `CN(C)CCN1C(=O)c2cccc3c(/C=C/CN4C(=O)c5cccc6cccc(c56)C4=O)ccc(c23)C1=O`, the GI50 in the test on UACC-62 melanoma is 16.3 µM; with SK-OV-3 ovarian, more than 100 µM; in the test with EKVX NSCLC it was more than 100 µM; in the test on RXF 393 renal it was 59.2 µM; in the test on A498 renal it was 34.1 µM; in the test on SR leukemia, 39.2 µM. The GI50 with HCC-2998 colon is more than 100 µM. Besides, the total growth inhibition concentration (TGI) is 33.1 µM with UACC-62 melanoma; more than 100 µM in the test with SK-OV-3 ovarian; more than 100 µM in the test on EKVX NSCLC; more than 100 µM in the test with RXF 393 renal; more than 100 µM in the test with A498 renal; more than 100 µM with SR leukemia. In the test on HCC-2998 colon, this molecule returned a TGI of more than 100 µM.

Regarding `Nc1nc(Cl)nc2c1ncn2C1OC(CO)C(O)C1F` (stereo unspecified), the GI50 was 0.145 µM in the test with UACC-62 melanoma; 0.355 µM with SK-OV-3 ovarian; 1.46 µM in the test on EKVX NSCLC; 12.8 µM with RXF 393 renal; 0.284 µM in the test on A498 renal; 1.67 µM in the test with SR leukemia. Besides, in the test on HCC-2998 colon, the 50% growth inhibitory concentration (GI50) was less than 0.0304 µM. In addition, the TGI in the test on UACC-62 melanoma was 1.7 µM; in the test with SK-OV-3 ovarian, more than 100 µM; in the test on EKVX NSCLC, more than 100 µM; with RXF 393 renal, more than 100 µM; with A498 renal, 2.55 µM; with SR leukemia it was 5.26 µM.

On to `O=c1cc(-c2ccccc2)[nH]c2c1CCCC2`, for which the GI50 was 5.91 µM in the test on UACC-62 melanoma; 5.11 µM in the test on SK-OV-3 ovarian; 5.6 µM in the test on EKVX NSCLC; 1.8 µM with RXF 393 renal; 1.44 µM in the test on A498 renal; 0.835 µM in the test with SR leukemia. Besides, the GI50 in the test with HCC-2998 colon is 2.5 µM. Further, the TGI with UACC-62 melanoma is more than 100 µM; in the test with SK-OV-3 ovarian it was more than 100 µM; in the test on EKVX NSCLC, more than 100 µM; with RXF 393 renal, 5.53 µM; with A498 renal, 7.83 µM; in the test on SR leukemia it was more than 100 µM. The molecule also registered a concentration for total growth inhibition (TGI) in the test with HCC-2998 colon of 31.9 µM.

Consider `O=C1NC(=O)C(c2cccc(Cl)c2)=C1Nc1ccc(Cl)c(C(=O)O)c1`, for which the GI50 in the test with UACC-62 melanoma, in the test with SK-OV-3 ovarian, in the test on EKVX NSCLC, in the test with RXF 393 renal, in the test on A498 renal and in the test with SR leukemia was more than 25 µM throughout. The GI50 with HCC-2998 colon was more than 25 µM. Besides, the TGI in the test with UACC-62 melanoma, in the test on SK-OV-3 ovarian, in the test with EKVX NSCLC, with RXF 393 renal, in the test on A498 renal and in the test with SR leukemia was more than 25 µM each time. In the test on HCC-2998 colon, this molecule had a TGI of more than 25 µM.

Turning to `CCc1ccc2oc(=O)ccc2c1`, the concentration for total growth inhibition (TGI) in the test with UACC-62 melanoma, in the test with EKVX NSCLC, in the test with RXF 393 renal, in the test on A498 renal, in the test with SR leukemia and in the test with HCC-2998 colon was more than 100 µM throughout.

On to `CN1CCC(c2c(O)cc(O)c3c(=O)cc(-c4ccccc4Cl)oc23)C(O)C1` (stereo unspecified), for which, in the test with UACC-62 melanoma, the 50% growth inhibitory concentration (GI50) was 0.0506 µM. For the same molecule, the TGI with UACC-62 melanoma is 0.197 µM; in the test with SK-OV-3 ovarian, more than 73.4 µM; in the test on EKVX NSCLC, 0.135 µM; in the test with RXF 393 renal, 0.0312 µM; in the test on DMS 114 small cell lung it was 0.393 µM; in the test with HCC-2998 colon it was 0.454 µM.

As for `C=C(C)[C@@H]1CCc2c(O)c(O)c(=O)cc(C)c2C1`, the TGI in the test on UACC-62 melanoma was 48.3 µM; in the test with SK-OV-3 ovarian, more than 100 µM; with EKVX NSCLC, more than 100 µM; in the test on RXF 393 renal it was more than 21.2 µM; in the test with A498 renal it was more than 62.3 µM; in the test with SR leukemia, more than 20.3 µM. For the same molecule, the total growth inhibition concentration (TGI) in the test with HCC-2998 colon was more than 100 µM.

As to `Nc1c(C(=O)c2cccc(C(O)CO)c2)cnn1-c1ccc(F)cc1` (stereo unspecified), the GI50 in the test with UACC-62 melanoma, in the test with SK-OV-3 ovarian, in the test on RXF 393 renal, in the test on A498 renal, with SR leukemia and in the test on HCC-2998 colon was more than 25 µM each time. For the same molecule, the concentration for total growth inhibition (TGI) in the test with UACC-62 melanoma, with SK-OV-3 ovarian, in the test on RXF 393 renal, in the test on A498 renal, in the test with SR leukemia and with HCC-2998 colon was more than 25 µM each time.

Take `Cc1nc(NS(=O)(=O)c2ccc(NCN3C(=O)c4ccccc4C3=O)cc2)oc1C`: the GI50 with UACC-62 melanoma, with SK-OV-3 ovarian, in the test with EKVX NSCLC, in the test on RXF 393 renal, in the test on A498 renal and with SR leukemia was more than 100 µM each time. For the same molecule, in the test with HCC-2998 colon, the GI50 is more than 100 µM. The TGI in the test on UACC-62 melanoma, with SK-OV-3 ovarian, in the test with EKVX NSCLC, in the test with RXF 393 renal, with A498 renal and with SR leukemia was more than 100 µM in each case. Moreover, the concentration for total growth inhibition (TGI) in the test on HCC-2998 colon is more than 100 µM.

As for `CC(C)[P+](c1ccccc1)(c1ccccc1)c1ccccc1`, the GI50 was 4.2 µM with UACC-62 melanoma; 22.4 µM in the test on SK-OV-3 ovarian; 27.4 µM in the test on RXF 393 renal; 9.22 µM with A498 renal; 3.05 µM in the test with SR leukemia; 3.36 µM with HCC-2998 colon. Further, the total growth inhibition concentration (TGI) was more than 100 µM in the test on UACC-62 melanoma; more than 100 µM in the test with SK-OV-3 ovarian; more than 100 µM in the test on RXF 393 renal; 74.9 µM with A498 renal; more than 100 µM in the test on SR leukemia; more than 100 µM in the test on HCC-2998 colon.

For the molecule `COc1ccc2nc(C)cc(Sc3nc4ccccc4s3)c2c1`, the GI50 with UACC-62 melanoma was 0.717 µM; in the test with SK-OV-3 ovarian, 1.19 µM; in the test on EKVX NSCLC it was 1.61 µM; in the test with RXF 393 renal it was 2.63 µM; with A498 renal, 1.37 µM; with SR leukemia it was 0.432 µM. Moreover, the GI50 in the test with HCC-2998 colon was 0.0938 µM. Further, the TGI in the test on UACC-62 melanoma came to 7.51 µM; in the test with SK-OV-3 ovarian, 4.75 µM; in the test on EKVX NSCLC, 8 µM; with RXF 393 renal, 8.19 µM; in the test on A498 renal it was 4.87 µM; in the test on SR leukemia, 2.46 µM. In the test with HCC-2998 colon, the TGI stood at 2.54 µM.

For `NC(N)=NC(N)=Nc1ccc(C(=O)O)cc1`, the TGI with UACC-62 melanoma, in the test with SK-OV-3 ovarian, with EKVX NSCLC, in the test with RXF 393 renal, in the test on A498 renal and with SR leukemia was more than 100 µM throughout. In the test on HCC-2998 colon, the TGI is more than 100 µM.

Take `O=C1OCC2=C1C(c1cccc(C(F)(F)F)c1)c1cc3c(cc1N2CCO)OCCO3` (stereo unspecified): the GI50 in the test on UACC-62 melanoma is 0.901 µM; with SK-OV-3 ovarian it was 1.29 µM; with EKVX NSCLC it was 1.33 µM; in the test with A498 renal it was 0.866 µM; in the test with SR leukemia it was 1.04 µM; in the test on HCC-2998 colon, 1.1 µM. The TGI with UACC-62 melanoma is more than 33.3 µM; in the test with SK-OV-3 ovarian, more than 33.3 µM; with EKVX NSCLC it was more than 33.3 µM; in the test on A498 renal it was 3.25 µM; with SR leukemia, more than 33.3 µM; in the test with HCC-2998 colon, more than 33.3 µM.

Values taken from PubChem BioAssay (NCI).
